Test results published in patent publication US12319967B2, “Methods and compositions for diagnosing and treating prostate cancer based on long noncoding RNA overlapping the LCK gene that regulates prostate cancer cell growth” (University of Virginia Patent Foundation, priority 2019, dated 2025).
“Also recorded” adds a separate entry of the source. Where a SMILES comes first, the peptide text is derived from it. The star is where a group is joined. Cbz = O=C(OCc1ccccc1)*

How the values were obtained:
Assay type in all cases: cell-based, human
[1] = system: LNCaP, C4-2, and Rv1 cells; test: CyQuant growth assay 7 days after viral transduction; settings: day 7; for effect on cell growth: absence of hormone, Rv1 cells
Description: FIG. 5A illustrates the gene structure of LCK and location of each shRNA targeting LCK. MISSION shRNAs targeting human LCK (NM_005356) and the pLKO vector control were purchased from ThermoFisher. Each shRNA was validated for efficiency of LCK or HULLK knockdown in Jurkat and PCa cells by qPCR. (C) The results of CyQuant Assay measuring DNA content as a surrogate for cell number 7 days after shRNA transduction is shown in FIG. 5C. Growth was compared to untreated empty vector control and the values were averaged across biological replicates. Error bars represent standard error of the mean. The relative effect of four independent shRNAs on cell growth in LNCaP, C42, and Rv1 cells in the absence or presence of 0.05 nM R1881, n=3. FIG. 5D plots the data for the relative effect of HULLK overexpression on cell growth in LNCaP, C42, and Rv1 cells in the absence or presence of 0.05 nM R1881, n=3. Statistical analysis was performed using ANOVA and Tukey test.
CyQuant Growth Assays: Assay was performed as previously described (18). Briefly, shRNA or pLKO control virus was added to 1 μg/ml fibronectin-coated 96 well plates. Cells were plated in RPMI-1640 plus 5% CSS with vehicle, 0-0.05 nM R1881, and/or 10 μM Enzalutamide (Selleck Chemicals). Quantification was performed on Day 7 using a BioTek Synergy 2 plate reader.
To explore the functional role of HULLK in PCa, the effects of HULLK knockdown on PCa cell growth was examined. LNCaP, C4-2, and Rv1 cells were transduced with lentiviral particles expressing four independent shRNAs specific for LCK or pLKO empty vector control in the presence or absence of 0.05 nM R1881. Two shRNAs were targeting the carboxy-terminal of LCK (shLCK-3 and shLCK-4) and should decrease HULLK levels; and two shRNAs were directed toward the amino-terminal (shLCK-1 and shLCK-2) and should not affect HULLK expression (FIG. 5A). […] As a control, all four shRNAs efficiently knocked LCK down 60-90% in Jurkat cells. Seven days following viral transduction, cellular growth was measured using CyQuant, which uses DNA content as a surrogate for cell number. In the absence of hormone, the four shRNAs had no dramatic effects on growth in LNCaP or C4-2 cells (FIG. 5C).
The complement experiment of evaluating the effects of overexpressing HULLK on cell growth was also performed. LNCaP, C4-2, and Rv1 cells were transduced with lentivirus expressing either vector or HULLK constructs in the presence or absence of 0.05 nM R1881, and proliferation was calculated seven days following viral transduction.

LCK protein = test: Western blot for LCK protein after proteasome inhibition with MG132; settings: LNCaP cells treated with FBS, CSS, or 1 nM R1881; 10 μM MG132; any timepoint
Description: (§1) FIGS. 1A to 1D illustrate the discovery of a novel lncRNA in prostate cancer cells. […] LCK protein was immunoprecipitated from 1 mg cell lysate from LNCaP, C4-2, and Jurkat cells cultured in the appropriate growth media for 48 hrs and treated with 1 nM R1881 or starved of hormone for 24 hrs, separated by 10% SDS-PAGE, and immunoblotted with LCK antibodies targeting the amino- and carboxy-terminals. Representative blots are shown, n=3. […] LNCaP cells were seeded and treated with 10 μM MG132 in the presence or absence of R1881 for the indicated timepoints. Cell lysates were blotted for LCK (c-terminal), LCK (n-terminal), p53, ERK1/2, Ran, and Histone H3. Representative blots are shown, n=3. Representative gel is shown, n=3. LNCaP cells were grown in the absence or presence of 1 nM R1881 for 24 hrs. RNA was collected using the Qiagen RNeasy kit. […]
(§2) To determine whether the lack of LCK expression was due to proteasomal degradation, LCK protein levels were examined in the presence of the proteasome inhibitor MG132 (FIG. 18). […] Furthermore, no truncated forms of LCK were detected when the whole western blot membrane was probed from 75 kD to 10 kD with either c- or n-terminal LCK antibodies. […] Therefore, a ncRNA may play a role in the growth effects measured in the kinome screen.

p53 = test: Western blot after proteasome inhibition with MG132; settings: LNCaP cells; 10 μM MG132
Description: as §1, §2

HULLK = test: qPCR of HULLK (LCK 3'UTR / exon 13) transcript levels in response to hormone and AR, p300 or Brd4 inhibition
Description: (§3) FIGS. 2A through 2E illustrate that HULLK is an AR-regulated lncRNA. […] LNCaP and C42 cells were transduced with two independent shRNAs to LCK and treated with 0-1 nM R1881. RNA was collected on Day 4 and LCK transcript levels were determined using LCK primers targeting the 3′UTR. […] LNCaP and C42 cells were seeded for 48 hrs, and then, treated with 1 nM R1881 in the presence or absence of 10 μM enzalutamide. RNA was collected 24 hrs after treatment and LCK transcript levels were determined by qPCR using LCK primers targeting the 3′UTR. C4-2, DU145, and PC3 cells were seeded in CSS media for 48 hrs, and then, treated with 1 nM R1881 for 16 hrs. RNA was collected and LCK transcript levels were determined using LCK primers targeting the 3′UTR. […] FIG. 2E illustrates that Brd4 inhibition reduces the hormone induction of HULLK, n=3. LNCaP, C42, or Jurkat cells were seeded for 48 hrs in the appropriate growth media, and then, treated with 1 nM R1881 in the presence or absence of 0.3 μM A-485 or 0.1 μM JQ1. RNA was collected 24 hrs after treatment and LCK transcript levels were determined by qPCR using LCK primers targeting exon 13 or 3′UTR. PSA and TMPRSS2 transcripts were determined to verify the efficacy of p300 and Brd4 inhibition.
FIGS. 7A and 7B illustrate the regulation of HULLK by the AR in breast cancer cells. […] LNCaP, MCF7, BT549, and MDA-MD-231 cells were seeded in the appropriate growth media, and whole cell lysates were collected 48 hrs later and blotted for AR21 and ERK1/2. […] MCF7, BT549, and MDA-MB-231 cells were seeded in CSS media for 48 hrs, and then, treated with 1 nM R1881 for 16 hrs. RNA was collected and LCK transcript levels were determined using LCK primers targeting the 3′UTR, n=3.
Cell Culture and Reagents. LNCaP and C4-2 cells (a gift from Dr. L. W. K. Chung) were grown in DMEM:F12 (Invitrogen) with 5% Non-Heat-Inactivated serum (Gemini) and 1% Insulin-Transferrin-Selenium-Ethanolamine (ThermoFisher). CWR22Rv1 (Rv1), VCaP, PC3 (gifts from Drs. Steven Balk, Karen Knudsen, and Chung, respectively), WMPY-1 (ATCC), MCF7, BT549 and MDA-MB-231 (gifts from Dr. Amy Bouton) were grown in DMEM (Invitrogen) with 10% Heat-Inactivated serum. DU145 (a gift from Dr. Chung), PANC1 (a gift from Dr. J. Thomas Parsons), HeLa and Jurkat cells (gifts from Dr. Tim Bender) were grown in RPMI-1640 (Invitrogen) with 10% Heat-Inactivated serum. LHS cells (a gift from Dr. William Hahn) were grown in ProstaLife Epithelial Cell Medium (Lifeline). RWPE-1 (ATCC) cells were grown in Keratinocyte-Serum-Free Media (Invitrogen). For growth and RNA experiments, phenol-red free DMEM:F12 media with 5% Charcoal-Stripped Serum (CSS) (Gemini) was used.
RNA Isolation, qPCR and ddPCR: RNA was collected using TRIzol and quantitated using a NanoDrop 2000 UV-Vis Spectrophotometer (ThermoFisher). cDNA was synthesized using Superscript IV VILO cDNA synthesis kit (Invitrogen). Quantitative real-time PCR (qPCR) was performed as previously described (17,18). Droplet digital PCR (ddPCR) was executed according to the manufacturer's protocol (Bio-Rad).
To assess whether this lncRNA is modulated by hormone, transcript levels of this lncRNA were quantified by qPCR using 3′UTR primers in LNCaP and C4-2 cells transduced in the presence of increasing concentrations of R1881 (FIG. 2A). […] This increase was inhibited in the presence of two independent LCK shRNAs in both cell lines.
This hormone regulation was confirmed by measuring transcript amounts in LNCaP and C4-2 cells treated with vehicle or R1881 in the presence or absence of the anti-androgen enzalutamide (FIG. 2B). As expected, there was an 8-fold and 12-fold R1881-induced increase in LCK 3′UTR transcript levels in LNCaP and C4-2 cells, respectively. […] Androgen deprivation influenced message levels negligibly in LNCaP cells, but decreased transcript amounts of this lncRNA by approximately 2.9-fold in C4-2 cells (FIG. 2B, C4-2 vehicle vs. media). […]

AR = AR protein and message levels 48 hrs after HULLK knockdown or overexpression; settings: LNCaP and C4-2 cells; 48 hrs after transduction
Description: LNCaP and C4-2 cells were transduced with vector, shLCK (n-term), or shLCK (c-term) in the appropriate growth media, and whole cell lysates were collected 48 hrs later and blotted for AR21 and ERK1/2, n=3. […] LNCaP and C4-2 cells were transduced with vector or HULLK in the appropriate growth media, and whole cell lysates were collected 48 hrs later and blotted for AR21 and α-tubulin, n=3. RNA was collected and AR transcript levels were determined using AR primers targeting the DNA binding domain, n=3.
Conversely, studies were conducted to determine whether HULLK modulates AR expression. LNCaP and C4-2 cells were transduced with vector, HULLK, or shRNAs targeting LCK (n-term) (FL-LCK) or LCK (c-term) (HULLK), and AR protein and message levels were examined 48 hrs after transduction.

[2] = system: PSA and TMPRSS2 transcripts; test: qPCR of PSA and TMPRSS2 transcripts to verify efficacy of p300 inhibition; settings: 0.3 μM A-485 + 1 nM R1881
Description: as §3, with “inhibition. […]” for “inhibition.”

## shLCK-4: shRNA targeting the carboxy-terminal of LCK (HULLK), nucleotide sequence SEQ ID NO: 26 (CCGGTCACATGGCCTATGCACATATCTCGAGATATGTGCATAGGCCATGTGATTTTTG)
[1]
  effect on cell growth: statistically significant decrease

## CC(C)C[C@@H](C=O)NC(=O)[C@H](CC(C)C)NC(=O)[C@H](CC(C)C)NC(=O)OCc1ccccc1 [MG132] (Cbz-Leu-Leu-Leu-aldehyde)
LCK protein
  LCK protein detection: still not observed
p53
  p53 protein level: elevated

## Cc1sc2c(c1C)C(c1ccc(Cl)cc1)=N[C@@H](CC(=O)OC(C)(C)C)c1nnc(C)n1-2 [JQ1]
HULLK; 0.1 μM JQ1 + 1 nM R1881, 24 hrs
  HULLK expression in the presence of hormone and JQ1 compared to hormone alone: significantly decreased

## CNC(=O)c1ccc(N2C(=S)N(c3ccc(C#N)c(C(F)(F)F)c3)C(=O)C2(C)C)cc1F [Enzalutamide]
HULLK; LNCaP and C4-2 cells, 1 nM R1881 + 10 μM enzalutamide, 24 hrs
  effect on hormone-mediated increase in LCK 3'UTR transcript (HULLK): blocked the hormone-mediated increase; also recorded: blocks the androgen-induced expression of HULLK

## HULLK: Hormone Upregulated lncRNA within LCK, overexpressed from lentiviral expression vector PLX301
[1]; 0.05 nM R1881, LNCaP, C4-2, and Rv1 cells
  proliferation of HULLK-overexpressing cells compared to vector control cells: significantly increased proliferation
[1]; androgen-deprived media, LNCaP, C4-2, and Rv1 cells
  growth of HULLK-overexpressing cells versus vector-expressing cells: did not provide a growth advantage
AR
  AR expression after overexpression of HULLK: not notably altered

## CNC(=O)Nc1ccc2c(c1)CC[C@@]21OC(=O)N(CC(=O)N(Cc2ccc(F)cc2)[C@@H](C)C(F)(F)F)C1=O [A-485]
HULLK; 0.3 μM A-485 + 1 nM R1881, 24 hrs
  effect on hormone-induced increase in HULLK transcript levels: significantly opposed the hormone-induced increase
HULLK; 0.3 μM A-485 without R1881, LNCaP, C4-2, Jurkat cells
  effect on HULLK expression, inhibitor alone: negligible effects
[2]
  PSA and TMPRSS2 message in the presence of hormone and p300 inhibitor: sufficiently blocking its target

## shLCK-3: shRNA targeting the carboxy-terminal of LCK (HULLK), nucleotide sequence SEQ ID NO: 25 (CCGGGGGATCCTGCTGACGGAAATTCTCGAGAATTTCCGTCAGCAGGATCCCTTTTTG)
[1]
  effect on cell growth: statistically significant decrease
